Experimental data reported in the CheMixHub viscosity set.
Values joined by “and” are separate entries in the source; they are usually repeats but may differ in a detail not shown here. Equal values may be shown once. ± gives the uncertainty stated by the source.

How the values were obtained:
[1] = xn = mol fraction of the nth substance listed; details: 100 kPa

O=CC(Br)(Br)Br
101.33 kPa
Details	viscosity [mPa·s]
293.15 K	6.81 ± 0.09
313.15 K	3.72 ± 0.06

CCCCCBr
101 kPa
Details	viscosity [mPa·s]
293.15 K	0.798 ± 0.017
303.15 K	0.709 ± 0.015
308.15 K	0.6509 ± 0.0054
313.15 K	0.637 ± 0.014
323.15 K	0.574 ± 0.012

CCn1cc[n+](CCOC)c1.N#C[S-]
100 kPa
Details	viscosity [mPa·s]
293.15 K	70.77 ± 3.9
298.15 K	55.77 ± 3
303.15 K	44.34 ± 2.4
308.15 K	36 ± 2
313.15 K	29.73 ± 1.6
318.15 K	24.89 ± 1.4

CCCC[N+](CCCC)(CCCC)CCCC.[OH-]
viscosity [mPa·s]
Details	298.15 K	303.15 K	308.15 K	313.15 K
100 kPa	6.69 ± 0.14	6.49 ± 0.14	6.29 ± 0.13	6.13 ± 0.13
101 kPa	6.69	6.49	6.29	6.13

C=CC[n+]1ccn(C)c1.[Cl-]
Details	viscosity [mPa·s]
298.15 K, 101 kPa	254.5 ± 10

CCCCCCCCn1cc[n+](C)c1.[Cl][Fe-]([Cl])([Cl])[Cl]
101 kPa
Details	viscosity [mPa·s]
293.15 K	167 ± 9.3
298.15 K	133.2 ± 6.8
303.15 K	106 ± 5
308.15 K	84.71 ± 3.8
313.15 K	68.3 ± 2.9
318.15 K	55.87 ± 2.3
323.15 K	46.6 ± 2

CC/C(C)=N/O
101.3 kPa
Details	viscosity
293.15 K	4.767 ± 0.031 mPa·s
298.15 K	4.016 ± 0.026 mPa·s and 4.02 ± 0.026 mPa·s
303.15 K	3.437 ± 0.022 mPa·s

CC(C)C1CCCCC1
100 kPa
Details	viscosity
293.15 K	1.098 ± 0.023 mPa·s
303.15 K	0.949 ± 0.02 mPa·s and 0.95 ± 0.02 mPa·s
308.15 K	0.885 ± 0.019 mPa·s and 0.889 ± 0.019 mPa·s
313.15 K	0.83 ± 0.018 mPa·s and 0.833 ± 0.018 mPa·s
318.15 K	0.781 ± 0.017 mPa·s and 0.783 ± 0.017 mPa·s
323.15 K	0.736 ± 0.016 mPa·s

CC(Cl)(Cl)Cl
viscosity
Details	101 kPa	101.3 kPa	101.32 kPa	101.33 kPa
303.15 K	0.7243 ± 0.0059 mPa·s and 0.7245 ± 0.019 mPa·s	0.7275 ± 0.0062 mPa·s	0.642 ± 0.064 mPa·s and 0.7243 ± 0.0088 mPa·s	0.7243 ± 0.0053 mPa·s
313.15 K	–	–	0.583 ± 0.058 mPa·s	–

O=CO
viscosity
Details	293.15 K	298.15 K	303.15 K	308.15 K	313.15 K	318.15 K	323.15 K
101 kPa	–	–	1.43 ± 0.029 mPa·s and 1.434 ± 0.029 mPa·s (2×)	1.304 ± 0.034 mPa·s	–	1.089 ± 0.029 mPa·s	0.9767 ± 0.026 mPa·s
101.33 kPa	1.959 ± 0.02 mPa·s	1.51 ± 0.08 mPa·s	1.36 ± 0.07 mPa·s	1.25 ± 0.06 mPa·s	1.291 ± 0.013 mPa·s and 1.15 ± 0.06 mPa·s	–	–

COC(=O)c1ccccc1C(=O)OC
101 kPa
Details	viscosity [mPa·s]
293.15 K	17.63 ± 0.54
298.15 K	13.8 ± 0.42
303.15 K	11.07 ± 0.34
308.15 K	9.064 ± 0.28
313.15 K	7.558 ± 0.23
318.15 K	6.4 ± 0.2
323.15 K	5.493 ± 0.17

CCCC[N+](CCCC)(CCCC)CCCC.[OH-] + CS(C)=O
viscosity [mPa·s], [1]
Details	298.15 K	303.15 K	308.15 K	313.15 K
x1 = 0.0159	2.19 ± 0.05	2.01 ± 0.05	1.87 ± 0.04	1.77 ± 0.04
x1 = 0.0368	2.43 ± 0.05	2.31 ± 0.05	2.19 ± 0.05	2.12 ± 0.05
x1 = 0.0632	2.72 ± 0.06	2.58 ± 0.06	2.47 ± 0.05	2.38 ± 0.05
x1 = 0.0911	3.02 ± 0.06	2.88 ± 0.06	2.77 ± 0.06	2.7 ± 0.06
x1 = 0.1206	3.32 ± 0.07	3.18 ± 0.07	3.08 ± 0.07	3 ± 0.06
x1 = 0.1519	3.65 ± 0.08	3.5 ± 0.07	3.4 ± 0.07	3.33 ± 0.07
x1 = 0.2183	4.25 ± 0.09	4.13 ± 0.09	4.07 ± 0.09	4.02 ± 0.09
x1 = 0.2907	4.86 ± 0.1	4.75 ± 0.1	4.69 ± 0.1	4.65 ± 0.1
x1 = 0.3787	5.51 ± 0.12	5.38 ± 0.11	5.33 ± 0.11	5.29 ± 0.11
x1 = 0.4429	5.92 ± 0.12	5.79 ± 0.12	5.73 ± 0.12	5.69 ± 0.12
x1 = 0.5298	6.4 ± 0.13	6.26 ± 0.13	6.17 ± 0.13	6.13 ± 0.13
x1 = 0.6052	6.71 ± 0.14	6.56 ± 0.14	6.45 ± 0.14	6.42 ± 0.14
x1 = 0.6947	6.97 ± 0.15	6.82 ± 0.14	6.67 ± 0.14	6.62 ± 0.14
x1 = 0.7486	7.03 ± 0.15	6.88 ± 0.14	6.74 ± 0.14	6.7 ± 0.14
x1 = 0.8273	7.07 ± 0.15	6.93 ± 0.15	6.77 ± 0.14	6.7 ± 0.14
x1 = 0.8964	7 ± 0.15	6.85 ± 0.14	6.69 ± 0.14	6.54 ± 0.14
x1 = 0.9481	6.86 ± 0.14	6.7 ± 0.14	6.53 ± 0.14	6.42 ± 0.14
x1 = 0.9765	6.76 ± 0.14	6.61 ± 0.14	6.42 ± 0.14	6.32 ± 0.13
